Measurements: ChEMBL document CHEMBL1132665, “Casein kinase II inhibitors isolated from two Brazilian plants Hymenaea parvifolia and Wulffia baccata” (Bioorg Med Chem Lett, 1999)

Key:
[1] = target: T1, Casein kinase II (Homo sapiens) (UniProt P67870+P68400+P19784); assay: Inhibition of CK-II-mediated 60S acidic ribosomal P protein activity at 10 uM; format: functional
[2] = target: T1, Casein kinase II (Homo sapiens); assay: In vitro inhibitory activity against casein kinase II was determined; format: protein-complex assay

Row | Activity [1] | ID50 [2] [µM] | SMILES
1 | Dose-dependent effect | 9 | C[C@H]1OC(O[C@H]2C(=O)c3c(O)cc(O)cc3O[C@@H]2c2ccc(O)c(O)c2)[C@H](O)[C@H](O)[C@@H]1O (stereo partly specified)
2 | Dose-dependent effect |  | C/C=C(/C)C(=O)O[C@@H]1CC(C)(C)CC2C3=CC[C@@H]4[C@]56CC[C@@](O)(OC5)C(C)(C)[C@@H]6CC[C@@]4(C)[C@]3(C)CC[C@]21C(=O)O (stereo partly specified)
3 | Dose-dependent effect |  | C[C@@H]1CC[C@]2(C(=O)O)CC[C@]3(C)C(=CC[C@@H]4[C@]56CC[C@@](O)(OC5)C(C)(C)[C@@H]6CC[C@]43C)C2[C@H]1C (stereo partly specified)
4 | Dose-dependent effect | 7 | C[C@H]1OC(O[C@@H]2C(=O)c3c(O)cc(O)cc3O[C@H]2c2ccc(O)c(O)c2)[C@H](O)[C@H](O)[C@@H]1O (stereo partly specified)
